What was measured:
Assay type in all cases: cell-based
SF-295 = experiment: NCI 60 cell line panel screening; conditions: Homo sapiens, CNS Cancer, read-out: Growth Inhibition (GI50)
From the text: (§1) Compound 3-(2-aminoethyl)-5-(3-cyclohexylpropylidene)thiazolidine-2,4-dione was screened at five concentrations in National Cancer Institute (NCI) 60-cell line panel according to NCI's protocol for growth inhibition.

NCI-H460 = experiment: NCI 60 cell line panel screening; conditions: Homo sapiens, Non-Small Cell Lung Cancer, read-out: Growth Inhibition (GI50)
From the text: as §1

OVCAR-4 = experiment: NCI 60 cell line panel screening; conditions: Homo sapiens, Ovarian Cancer, read-out: Growth Inhibition (GI50)
From the text: as §1

HCT-116 = experiment: NCI 60 cell line panel screening; conditions: Homo sapiens, Colon Cancer, read-out: Growth Inhibition (GI50)
From the text: as §1

MCF7 = experiment: NCI 60 cell line panel screening; conditions: Homo sapiens, Breast Cancer, read-out: Growth Inhibition (GI50)
From the text: as §1

OVCAR-3 = experiment: NCI 60 cell line panel screening; conditions: Homo sapiens, Ovarian Cancer, read-out: Growth Inhibition (GI50)
From the text: as §1

EKVX = experiment: NCI 60 cell line panel screening; conditions: Homo sapiens, Non-Small Cell Lung Cancer, read-out: Growth Inhibition (GI50)
From the text: as §1

MDA-MB-231/ATCC = experiment: NCI 60 cell line panel screening; conditions: Homo sapiens, Breast Cancer, read-out: Growth Inhibition (GI50)
From the text: as §1

TK-10 = experiment: NCI 60 cell line panel screening; conditions: Homo sapiens, Renal Cancer, read-out: Growth Inhibition (GI50)
From the text: as §1

SK-MEL-28 = experiment: NCI 60 cell line panel screening; conditions: Homo sapiens, Melanoma, read-out: Growth Inhibition (GI50)
From the text: as §1

MALME-3M = experiment: NCI 60 cell line panel screening; conditions: Homo sapiens, Melanoma, read-out: Growth Inhibition (GI50)
From the text: as §1

IGROV1 = experiment: NCI 60 cell line panel screening; conditions: Homo sapiens, IGROV-1, Ovarian Cancer, read-out: Growth Inhibition (GI50)
From the text: as §1

KM12 = experiment: NCI 60 cell line panel screening; conditions: Homo sapiens, Colon Cancer, read-out: Growth Inhibition (GI50)
From the text: as §1

NCI-522 = experiment: NCI 60 cell line panel screening; conditions: Non-Small Cell Lung Cancer, read-out: Growth Inhibition (GI50)
From the text: as §1

SNB-75 = experiment: NCI 60 cell line panel screening; conditions: Homo sapiens, CNS Cancer, read-out: Growth Inhibition (GI50)
From the text: as §1

NCI-H226 = experiment: NCI 60 cell line panel screening; conditions: Homo sapiens, Non-Small Cell Lung Cancer, read-out: Growth Inhibition (GI50)
From the text: as §1

RPMI-8226 = experiment: NCI 60 cell line panel screening; conditions: Homo sapiens, Leukemia, read-out: Growth Inhibition (GI50)
From the text: as §1

NCI/ADR-RES = experiment: NCI 60 cell line panel screening; conditions: Homo sapiens, Ovarian Cancer, read-out: Growth Inhibition (GI50)
From the text: as §1

A498 = experiment: NCI 60 cell line panel screening; conditions: Homo sapiens, Renal Cancer, read-out: Growth Inhibition (GI50)
From the text: as §1

HOP-62 = experiment: NCI 60 cell line panel screening; conditions: Homo sapiens, Non-Small Cell Lung Cancer, read-out: Growth Inhibition (GI50)
From the text: as §1

MOLT-4 = experiment: NCI 60 cell line panel screening; conditions: Homo sapiens, Leukemia, read-out: Growth Inhibition (GI50)
From the text: as §1

HCC-2998 = experiment: NCI 60 cell line panel screening; conditions: Homo sapiens, Colon Cancer, read-out: Growth Inhibition (GI50)
From the text: as §1

HL-60(TB) = experiment: NCI 60 cell line panel screening; conditions: Homo sapiens, Leukemia, read-out: Growth Inhibition (GI50)
From the text: as §1

SNB-19 = experiment: NCI 60 cell line panel screening; conditions: Homo sapiens, CNS Cancer, read-out: Growth Inhibition (GI50)
From the text: as §1

ACHN = experiment: NCI 60 cell line panel screening; conditions: Homo sapiens, Renal Cancer, read-out: Growth Inhibition (GI50)
From the text: as §1

RXF-393 = experiment: NCI 60 cell line panel screening; conditions: Homo sapiens, Renal Cancer, read-out: Growth Inhibition (GI50)
From the text: as §1

M14 = experiment: NCI 60 cell line panel screening; conditions: Homo sapiens, Melanoma, read-out: Growth Inhibition (GI50)
From the text: as §1

UACC-257 = experiment: NCI 60 cell line panel screening; conditions: Homo sapiens, Melanoma, read-out: Growth Inhibition (GI50)
From the text: as §1

COLO 205 = experiment: NCI 60 cell line panel screening; conditions: Homo sapiens, Colon Cancer, read-out: Growth Inhibition (GI50)
From the text: as §1

OVCAR-5 = experiment: NCI 60 cell line panel screening; conditions: Homo sapiens, Ovarian Cancer, read-out: Growth Inhibition (GI50)
From the text: as §1

BT-549 = experiment: NCI 60 cell line panel screening; conditions: Homo sapiens, Breast Cancer, read-out: Growth Inhibition (GI50)
From the text: as §1

U251 = experiment: NCI 60 cell line panel screening; conditions: Homo sapiens, U-251, CNS Cancer, read-out: Growth Inhibition (GI50)
From the text: as §1

CCRF-CEM = experiment: NCI 60 cell line panel screening; conditions: Homo sapiens, Leukemia, read-out: Growth Inhibition (GI50)
From the text: as §1

SK-MEL-2 = experiment: NCI 60 cell line panel screening; conditions: Homo sapiens, Melanoma, read-out: Growth Inhibition (GI50)
From the text: as §1

NCI-H23 = experiment: NCI 60 cell line panel screening; conditions: Homo sapiens, Non-Small Cell Lung Cancer, read-out: Growth Inhibition (GI50)
From the text: as §1

U937 = experiment: Cell viability assay; conditions: Homo sapiens, U-937, U937 cells, 24 hrs, read-out: Inhibition of cancer cell proliferation IC50
Procedure: (§2) Cells were cultured at a density of 5×10^4 (U937) or 1×10^4 (PC-3, DU145, M12, HT29) cells per well in flat bottomed 96-well plates and treated with various concentrations of test compound at 37° C. (5% CO2). After 24 h, 20 μL of CellTiter 96® Aqueous One Solution Reagent (Promega, Madison, Wis.) was added to each well according to the manufacturer's instructions. After 1 hour, the cell viability was determined by measuring the absorbance at 490 nm using a micro-plate reader.

M12 = experiment: Cell viability assay; conditions: M12 cells, 24 hrs, read-out: Inhibition of cancer cell proliferation IC50
Procedure: as §2

PC-3 = experiment: Cell viability assay; conditions: Homo sapiens, PC-3 cells, 24 hrs, read-out: Inhibition of cancer cell proliferation IC50
Procedure: as §2

DU145 = experiment: Cell viability assay; conditions: Homo sapiens, DU-145, DU145 cells, 24 hrs, read-out: Inhibition of cancer cell proliferation IC50
Procedure: as §2

HT29 = experiment: Cell viability assay; conditions: Homo sapiens, HT-29, HT29 cells, 24 hrs, read-out: Inhibition of cancer cell proliferation IC50
Procedure: as §2

NCCN1C(=O)S/C(=C\CCC2CCCCC2)C1=O [Example 4, 3-(2-aminoethyl)-5-(3-cyclohexylpropylidene)thiazolidine-2,4-dione]
GI50 (SF-295): 1730 nM
GI50 (NCI-H460): 1950 nM
GI50 (OVCAR-4): 1600 nM
GI50 (HCT-116): 1670 nM
GI50 (MCF7): 3130 nM
GI50 (OVCAR-3): 1890 nM
GI50 (EKVX): 2530 nM
GI50 (MDA-MB-231/ATCC): 2080 nM
GI50 (TK-10): 2010 nM
GI50 (SK-MEL-28): 1770 nM
GI50 (MALME-3M): 1800 nM
GI50 (IGROV1): 1960 nM
GI50 (KM12): 1770 nM
GI50 (NCI-522): 1400 nM
GI50 (SNB-75): 4560 nM
GI50 (NCI-H226): 9980 nM
GI50 (RPMI-8226): 2510 nM
GI50 (NCI/ADR-RES): 2200 nM
GI50 (A498): 1570 nM
GI50 (HOP-62): 3250 nM
GI50 (MOLT-4): 2380 nM
GI50 (HCC-2998): 1780 nM
GI50 (HL-60(TB)): 2040 nM
GI50 (SNB-19): 4460 nM
GI50 (ACHN): 1840 nM
GI50 (RXF-393): 2560 nM
GI50 (M14): 1680 nM
GI50 (UACC-257): 1690 nM
GI50 (COLO 205): 2190 nM
GI50 (OVCAR-5): 1980 nM
GI50 (BT-549): 2050 nM
GI50 (U251): 1720 nM
GI50 (CCRF-CEM): 2500 nM
GI50 (SK-MEL-2): 1900 nM
GI50 (NCI-H23): 3080 nM
IC50 (U937): 2210 nM
IC50 (M12): 4510 nM
IC50 (PC-3): 4460 nM
IC50 (DU145): 4800 nM
IC50 (HT29): 17900 nM

From US20110166191A1, “3-(2-amino-ethyl)-5-(3-cyclohexyl-propylidene)-thiazolidine-2,4-dione and its derivatives as multiple signaling pathway inhibitors and for the treatment of cancer” (priority 2010, published 2011)
